From the NIST ThermoML archive (doi:10.1021/je700210n)
Numbers after ± are expanded uncertainties.

Assay: xn = mol fraction of the nth substance listed
Conditions: Liquid, determined from the liquid sample's weight and the volume of sample.

For `CC` [ethane] + N#N, the mass density (149.97 K, x2 = 0.0702) was 558.2 ± 10 kg/m3, the mass density (169.87 K, x2 = 0.2041) was 544.8 ± 9.9 kg/m3 and the mass density (169.91 K, x2 = 0.114) was 537.5 ± 9.8 kg/m3. It also gave a mass density (170 K, x2 = 0.036) of 525 ± 9.7 kg/m3, a mass density (209.93 K, x2 = 0.0236) of 479.7 ± 8.7 kg/m3 and a mass density (210.04 K, x2 = 0.3352) of 482.6 ± 8.8 kg/m3. For the same molecule, the mass density (249.66 K, x2 = 0.0761) was 416.5 ± 7.6 kg/m3, the mass density (249.98 K, x2 = 0.0518) was 414.7 ± 7.5 kg/m3 and the mass density (250.03 K, x2 = 0.1483) was 407.9 ± 7.5 kg/m3. It also gave a mass density (269.91 K, x2 = 0.1969) of 350.5 ± 6.7 kg/m3, a mass density (269.94 K, x2 = 0.0305) of 378.2 ± 6.9 kg/m3 and a mass density (269.97 K, x2 = 0.3581) of 284.6 ± 6.8 kg/m3. For the same molecule, the mass density (270 K, x2 = 0.2503) was 332.5 ± 7.3 kg/m3 and the mass density (270.01 K, x2 = 0.06) was 376.3 ± 6.8 kg/m3.
For `N#N` [nitrogen] + C, the mass density (129.98 K, x1 = 0.2952) was 648.5 ± 3.2 kg/m3, the mass density (129.99 K, x1 = 0.4716) was 618.7 ± 3.1 kg/m3 and the mass density (149.93 K, x1 = 0.5938) was 413.6 ± 7.2 kg/m3. It also gave a mass density (149.96 K, x1 = 0.4151) of 527.4 ± 5.3 kg/m3, a mass density (149.97 K, x1 = 0.1389) of 602.8 ± 3.5 kg/m3 and a mass density (149.97 K, x1 = 0.3339) of 555.8 ± 3.6 kg/m3. It also gave a mass density (150 K, x1 = 0.5608) of 436 ± 7.2 kg/m3, a mass density (150.01 K, x1 = 0.504) of 474.9 ± 6.6 kg/m3 and a mass density (159.36 K, x1 = 0.3238) of 492 ± 5.7 kg/m3. The mass density (159.96 K, x1 = 0.4275) was 427.8 ± 4.7 kg/m3, the mass density (159.98 K, x1 = 0.0224) was 577 ± 3.6 kg/m3 and the mass density (159.99 K, x1 = 0.2659) was 511 ± 3.7 kg/m3. For the same molecule, the mass density (160 K, x1 = 0.4156) was 432.5 ± 4.7 kg/m3, the mass density (169.98 K, x1 = 0.2384) was 436.4 ± 6.9 kg/m3 and the mass density (169.99 K, x1 = 0.263) was 420.1 ± 8.7 kg/m3. The mass density (170.01 K, x1 = 0.2279) was 442.9 ± 6.8 kg/m3, the mass density (170.01 K, x1 = 0.3013) was 383.6 ± 9.7 kg/m3 and the mass density (179.98 K, x1 = 0.1281) was 390.8 ± 12 kg/m3. It also gave a mass density (179.98 K, x1 = 0.1898) of 319 ± 12 kg/m3.
